Source: PMC9374744, “Structural basis for receptor selectivity and inverse agonism in S1P5 receptors” (Nature Communications, 2022)

Biological target: T1, S1P5 (Homo sapiens, UniProt Q9H228, G231K/G234L/INS226[…]/INS240[…]/P227A/P230V/R224A/R225D/R229Q/R239A/S237M/T232D/T236K/T238R)
T1 construct: The C-terminus was truncated after Val321; hemagglutinin signal peptide (HA; […]) (N); FLAG-tag (N); Ala-Gly-Arg-Ala linker (N); PreScission cleavage site (C); 10× His tag (C, cleaved yes); made in house; host or cells: Sf9 insect cells (baculovirus, Bac-to-Bac)
Test: Microscale fluorescent (CPM) thermal stability assay
Type: binding
Details: CPM fluorescence thermal shift; purified S1P5 crystallization construct
Protocol: Cells were thawed and lysed by repetitive washes (Dounce homogenization on ice, and centrifugation at 128,600×g for 30 min at 4 °C) in hypotonic buffer (10 mM HEPES pH 7.5, 20 mM KCl, and 10 mM MgCl2) and high osmotic buffer (10 mM HEPES pH 7.5, 20 mM KCl, 10 mM MgCl2, and 1 M NaCl) with an addition of protease inhibitor cocktail [PIC; 500 µM 4-(2-aminoethyl)benzenesulfonyl fluoride hydrochloride (Gold Biotechnology), 1 µM E-64 (Cayman Chemical), 1 µM leupeptin (Cayman Chemical), 150 nM aprotinin (A.G. Scientific)] with the ratio of 50 μl per 100 ml of lysis buffer. […] Stability and stabilizing effect of the ligand were measured by microscale fluorescent thermal stability assay[55] […]
Microscale fluorescent thermal stability assay[55] was conducted using a CPM dye (7-Diethylamino-3-(4-maleimidophenyl)-4-methylcoumarin, Invitrogen) dissolved in DMF at 10 mM. […] 1 µg of the target protein was added to 50 µL of working buffer (25 mM HEPES, 250 mM NaCl, 10%v/v glycerol, 0.05%w/v DDM, 0.01%w/v CHS) with CPM, and the melting curve was recorded on a Rotor-Gene Q real-time PCR cycler (Qiagen) using a temperature ramp from 28 to 98 °С with 2 °С/min rate. The fluorescence signal was measured in the Blue channel (excitation 365 nm, emission 460 nm), and the melting temperature was calculated as the maximum of the fluorescence signal derivative with respect to temperature.

T1 sequence (Q9H228 other isoform, or with tags, fused parts or gaps with the stated changes): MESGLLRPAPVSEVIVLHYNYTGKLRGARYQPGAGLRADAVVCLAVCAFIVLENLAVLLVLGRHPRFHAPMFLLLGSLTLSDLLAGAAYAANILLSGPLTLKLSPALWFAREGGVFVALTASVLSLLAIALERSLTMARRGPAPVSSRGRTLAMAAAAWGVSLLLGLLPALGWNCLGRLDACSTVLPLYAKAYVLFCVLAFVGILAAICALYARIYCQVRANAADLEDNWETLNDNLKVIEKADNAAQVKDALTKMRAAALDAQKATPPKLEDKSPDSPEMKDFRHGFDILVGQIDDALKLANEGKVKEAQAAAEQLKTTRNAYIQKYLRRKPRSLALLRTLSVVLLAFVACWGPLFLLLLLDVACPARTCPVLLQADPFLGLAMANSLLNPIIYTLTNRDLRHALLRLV

For O=C(O)CCCN1CCc2cccc(OCCc3cccc4ccccc34)c2CC1 [ONO-5430608, 4-{6-[2-(1-naphthyl)ethoxy]-1,2,4,5-tetrahydro-3H-3-benzazepin-3-yl} butanoic acid], which “increase of the thermal stability of S1P5” value is on record?
Its value is 19 °C.
